The source made the active and inactive calls. No cut-off for these calls is given here.
Legend:
[1] = target: Sigma non-opioid intracellular receptor 1 (Homo sapiens, UniProt Q99720); experiment: Displacement of [3H](+)-pentazocine from human sigma 1 receptor transfected in human HEK293T cells assessed as inhibition constant by radioligand competition binding assay; assay type: cell-based
[2] = target: Sigma intracellular receptor 2 (Homo sapiens, UniProt Q5BJF2); experiment: Displacement of [3H][…]ditolylguanidine from human sigma 2 receptor transfected in human HEK293T cells assessed as inhibition constant by radioligand competition binding assay; assay type: cell-based
MIA PaCa-2 [3] = experiment: cells; settings: Homo sapiens, MIA PaCa-2, 72 h
[4] = Metabolic stability in mouse liver microsomes assessed as half life at 10 uM measured upto 60 mins in presence of NADPH by LC-MS/MS analysis; assay type: ADME, Microsome; settings: 1 h
[5] = Metabolic stability in human liver microsomes assessed as half life at 10 uM measured upto 60 mins in presence of NADPH by LC-MS/MS analysis; assay type: ADME, Microsome; settings: for t1/2: microsomes, 1 h, 10 µM
MIA PaCa-2 [6] = experiment: Upregulation of GRP78 in human MIA PaCa-2 cells at 10 to 30 uM measured after 24 hrs by Western blot analysis; assay type: functional, cell-based; settings: dose 10-30 µM
[7] = Cytotoxicity against HEK293 cells measured after 72 hrs by MTT assay; assay type: toxicity, cell-based; settings: human
[8] = Cytotoxicity against HPDE cells measured after 72 hrs by MTT assay; assay type: toxicity, cell-based; settings: human
[9] = Cytotoxicity against HFF-1 cells measured after 72 hrs by MTT assay; assay type: toxicity, cell-based; settings: human
MIA PaCa-2 [10] = experiment: Antagonistic cytotoxicity against human MIA PaCa-2 cells at 0.001 to 0.1 uM measured after 7 days in presence of ammonium tetrathiomolybdate by crystal violet staining based analysis; assay type: functional, cell-based; settings: dose 0.001-0.1 µM, time 7.0 day
MIA PaCa-2 [11] = experiment: Synergistic cytotoxicity against human MIA PaCa-2 cells at 0.001 to 0.1 uM measured after 7 days in presence of copper chloride by crystal violet staining based analysis; assay type: functional, cell-based; settings: dose 0.001-0.1 µM, time 7.0 day
MIA PaCa-2 [12] = experiment: Inhibition of colony formation in human MIA PaCa-2 cells at 0.04 to 30 uM pretreated with ammonium tetrathiomolybdate for 4 hrs followed by compound addition and measured after 6 days; assay type: functional, cell-based; settings: dose 0.04-30 µM, time 6.0 day
HCT-116 = experiment: Inhibition of colony formation in human HCT-116 cells at 0.04 to 30 uM pretreated with ammonium tetrathiomolybdate for 4 hrs followed by compound addition and measured after 6 days; assay type: functional, cell-based; settings: dose 0.04-30 µM, time 6.0 day
PANC-1 = experiment: cells; settings: Homo sapiens, PANC-1, 72 h
BXPC-3 = experiment: cells; settings: Homo sapiens, BXPC-3, 72 h
Panc02 = experiment: cells; settings: Mus musculus, Panc02, 72 h
cells = settings: Mus musculus, KPC2, 72 h

Sequence of Sigma non-opioid intracellular receptor 1 (Q99720 whole entry): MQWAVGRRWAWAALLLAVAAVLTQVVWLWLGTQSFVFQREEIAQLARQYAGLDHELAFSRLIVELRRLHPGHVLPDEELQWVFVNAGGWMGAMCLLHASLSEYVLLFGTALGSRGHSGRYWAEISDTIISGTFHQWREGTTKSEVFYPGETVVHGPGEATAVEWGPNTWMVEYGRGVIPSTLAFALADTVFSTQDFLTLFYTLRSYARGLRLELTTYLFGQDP
Sequence of Sigma intracellular receptor 2 (Q5BJF2 whole entry): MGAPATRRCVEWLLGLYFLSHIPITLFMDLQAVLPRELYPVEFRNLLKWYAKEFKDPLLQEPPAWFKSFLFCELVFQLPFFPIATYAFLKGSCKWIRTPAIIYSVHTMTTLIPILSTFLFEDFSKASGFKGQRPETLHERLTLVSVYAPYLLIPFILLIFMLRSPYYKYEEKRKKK

SMILES	Ki [1] [nM]	Ki [2] [nM]	IC50 (MIA PaCa-2 [3]) [nM]	also measured
Cc1cc(NC(=O)c2cnc(OC3CCNCC3)cn2)c2ncccc2c1	336	134	6500	–
CCN(CC)CCCC(C)Nc1ccc(S(=O)(=O)Nc2cc(F)cc3cccnc23)nc1 (stereo not given)	188	38	3800	t1/2 [4]: 15 min; t1/2 [5]: 39.2 min
CCN(CC)CCCC(C)Nc1nc(C(=O)Nc2cc(F)cc3cccnc23)cs1 (stereo not given)	159	32	1500	t1/2 [4]: 3.3 min; t1/2 [5]: 23 min
CCN(CC)CCCC(C)Nc1cnc(C(=O)Nc2cc(OC)cc3cccnc23)cn1 (stereo not given)	137	13	2300	–
CCN(CC)CCCC(C)Nc1cnc(CNc2cc(F)cc3cccnc23)cn1 (stereo not given)	1460	65	> 30000	–
O=C(Nc1cc(F)cc2cccnc12)c1cnc(NCCN2CCS(=O)(=O)CC2)cn1	2290	3770	> 30000	–
CCN(CC)CCCC(C)Nc1cnc(C(=O)Nc2cccc3cc(Cl)cnc23)cn1 (stereo not given)	155	51	3800	–
CCN(CC)CCCC(C)Nc1cnc(C(=O)Nc2cccc3c(Cl)ccnc23)cn1 (stereo not given)	59	20	3400	–
O=C(CN1CCC(CN2Cc3ccccc3C2=O)CC1)c1ccc(F)cc1	–	–	–	Activity (MIA PaCa-2 [6]): Active
CCN(CC)CCCC(C)Nc1cnc(C(=O)Nc2c(C)ccc3cccnc23)cn1 (stereo not given)	–	2660	> 30000	–
CCN(CC)CCCC(C)Nc1cnc(C(=O)Nc2ccc(OC)c3cccnc23)cn1 (stereo not given)	317	40	6800	–
CN(C)CCOc1cnc(C(=O)Nc2cc(F)cc3cccnc23)cn1	112	1340	600	–
CCN(CC)CCCC(C)Nc1cnc(C(=O)Nc2cc(Cl)cc3cccnc23)cn1 (stereo not given)	95	14	1800	–
CCN(CC)CCCC(C)Nc1cnc(C(=O)Nc2cc(C#N)cc3cccnc23)cn1 (stereo not given)	405	108	10100	–
Nc1ccn([C@@H]2O[C@H](CO)[C@@H](O)C2(F)F)c(=O)n1 [GEMCITABINE]	–	–	–	IC50 at 72 h [7]: 100 nM; IC50 at 72 h [8]: 1 nM
Cc1cc(NC(=O)c2cnc(N3CCN(CCN)CC3)cn2)c2ncccc2c1	166	129	7400	–
Fc1ccc(-n2cc(CCCCN3CCC4(CC3)OCc3ccccc34)c3ccccc32)cc1	–	–	–	Activity (MIA PaCa-2 [6]): Active
O=C(Nc1cc(F)cc2cccnc12)c1cnc(NS(=O)(=O)CCC(F)(F)F)cn1	–	–	> 30000	–
CCN(CC)CCCC(C)Nc1cnc(C(=O)Nc2cccc3cc(C)cnc23)cn1 (stereo not given)	169	16	2300	–
Cc1cc(NC(=O)c2cnc(NCCN3CCNCC3)cn2)c2ncccc2c1	677	400	15600	–
O=C(Nc1cccc2cccnc12)c1cnccn1	–	–	–	IC50 at 72 h [9]: > 30000 nM; IC50 at 72 h [7]: 200 nM; IC50 at 72 h [8]: 600 nM; Activity (MIA PaCa-2 [10]): Active; Activity (MIA PaCa-2 [11]): Active; inhibition (MIA PaCa-2 [12]): inactive; inhibition (HCT-116): inactive; IC50 (PANC-1): 1700 nM; IC50 (BXPC-3): 1800 nM; IC50 (Panc02): 300 nM; IC50 (cells): 200 nM
CCN(CC)CCCC(C)Nc1cnc(C(=O)Nc2c(OC)ccc3cccnc23)cn1 (stereo not given)	–	1630	> 30000	–
CC(C)CS(=O)(=O)Nc1cnc(C(=O)Nc2cc(F)cc3cccnc23)cn1	–	–	> 30000	–
O=C(Nc1cc(F)cc2cccnc12)c1cnc(NCCN2CCCC2)cn1	208	165	2000	–

Continued, in another order:

Ki [1] [nM]	Ki [2] [nM]	IC50 (MIA PaCa-2 [3]) [nM]	SMILES	also measured
196	22	3700	CCN(CC)CCCC(C)Nc1cnc(C(=O)Nc2cccc3cccnc23)cn1 (stereo not given)	–
46	27	1600	CCN(CC)CCCC(C)Nc1cnc(C(=O)Nc2cc(Br)cc3cccnc23)cn1 (stereo not given)	–
–	–	1200	COCCNc1cnc(C(=O)Nc2cc(F)cc3cccnc23)cn1	–
508	2150	600	Cc1cc(NC(=O)c2cnc(S(=O)(=O)NCCN(C)C)cn2)c2ncccc2c1	t1/2 [4]: 6 min
250	85	1100	CCN(CC)CCCC(C)Nc1cnc(C(=O)Nc2cc(C)cc3cccnc23)cn1 (stereo not given)	t1/2 [4]: 21 min
159	71	9500	CCN(CCO)CCCC(C)Nc1cnc(C(=O)Nc2cc(C)cc3cccnc23)cn1 (stereo not given)	–
1270	458	7900	CCN(CC)CCCC(C)Nc1cnc(C(=O)Nc2cc(O)cc3cccnc23)cn1 (stereo not given)	–
233	44	9900	CCN(CC)CCCC(C)Nc1cnc(C(=O)Nc2cccc3ccc(C)nc23)cn1 (stereo not given)	–
–	–	20000	O=C(CCNc1cnc(C(=O)Nc2cc(F)cc3cccnc23)cn1)NO	–
–	–	2600	CCCNc1cnc(C(=O)Nc2cc(F)cc3cccnc23)cn1	–
83	12	4900	CCN(CC)CCCC(C)Nc1cnc(C(=O)Nc2cccc3ccc(Cl)nc23)cn1 (stereo not given)	–
385	155	4900	CCN(CC)CCCC(C)Nc1cnc(C(=O)Nc2cc(C(F)(F)F)cc3cccnc23)cn1 (stereo not given)	–
463	52	> 30000	CCN(CC)CCCC(C)NCC(=O)Nc1cc(C)cc2cccnc12 (stereo not given)	–
67	13	1900	CCN(CC)CCCC(C)Nc1cnc(C(=O)Nc2cccc3ccc(OC)nc23)cn1 (stereo not given)	t1/2 [4]: 54 min; half-life at 10 µM ([5]; liver microsomes): > 60 min
110	105	2400	CN(C)CCCNc1cnc(C(=O)Nc2cc(F)cc3cccnc23)cn1	–
398	42	1700	CCN(CC)CCCC(C)Nc1cnc(C(=O)Nc2ccc(C)c3cccnc23)cn1 (stereo not given)	–
627	471	1400	CN(C)CCNc1cnc(C(=O)Nc2cc(F)cc3cccnc23)cn1	–
71	27	3000	CCN(CC)CCCC(C)Nc1cnc(C(=O)Nc2cc(C3CC3)cc3cccnc23)cn1 (stereo not given)	–
67	36	3200	CCN(CC)CCCC(C)Nc1cnc(C(=O)Nc2cc(C)c(Cl)c3cccnc23)cn1 (stereo not given)	–
356	79	5400	CCN(CC)CCCC(C)Nc1cnc(C(=O)Nc2ccc(Cl)c3ccc(OC)nc23)cn1 (stereo not given)	–
132	70	2900	CCN(CC)CCCC(C)Nc1cnc(C(=O)Nc2ccc(OC)c3ccc(OC)nc23)cn1 (stereo not given)	–
212	18	3000	CCN(CC)CCCC(C)Nc1cnc(C(=O)Nc2ccc(F)c3cccnc23)cn1 (stereo not given)	–
122	28	3900	CCN(CC)CCCC(C)Nc1cnc(C(=O)Nc2cc(F)c(Cl)c3cccnc23)cn1 (stereo not given)	–

— ChEMBL document CHEMBL5316327, “Design and Synthesis of Orally Active Quinolyl Pyrazinamides as Sigma 2 Receptor Ligands for the Treatment of Pancreatic Cancer” (J Med Chem, 2023)
